# Data from US8715751B2, “Artemisinins in the clinical and veterinary management of kinetoplastid infections” (The United States of America as Represented by the …, priority 2006, dated 2014).
# Several values for one entry are separate records, joined by “and”; a condition that tells them apart may be missing. Equal entries are not always repeated. Where two headings read alike, the source gives them in different places.
# How the values were obtained:
# [1] = tested on: Leishmania major ATCC 50122 amastigotes; assay: In vitro amastigote/macrophage culture drug screening; type: cell-based; conditions: for effectiveness ranking of the compounds in the screen: 2.0 μM initial screen
# Procedure: Preliminary drug screening (in vitro amastigote/macrophage culture) of artemisinin and artelinic acid compounds.
# The four compounds were dissolved in the respective solvents as indicated in the table below (Table 1) and were tested against Leishmania major ATCC 50122 amastigotes in vitro in a mouse macrophage system. A positive (Pentostam) and negative (culture medium) controls were set for each plate. Compounds were tested at 2.0 μM in a total volume of 2-0 mls. Drug was added to well every 4 hours×1, 2 and 3, and results shown in (Table 2) below.
# Because of the high potency of Artelinic acid relative to the other compounds, the experiments were repeated with different doses of Artelinic acid alone.
# [2] = cited from earlier work
# [3] = tested on: Leishmania major lesions; assay: In vivo testing in BALB/c mice, Leishmania footpad lesion; conditions: for Lesion Size (mm) Post-Rx: daily for one week, 9 days after commencement; for Lesion Size (mm) Pre-Rx: prior to dosing
# Procedure: One foot pad was infected with infective Leishmania promastigotes while the other foot served as control. After the infected foot pads had developed lesions, mice with similar size lesions were selected and treated daily with test article for one week. The first doses were administered on 18 May. Lesions were measured with calipers prior to dosing and 9 days after commencement of treatment (27 May) and the difference in lesion size calculated. The thickness of the uninfected footpad was also measured. […] Test articles were administered orally and intra-peritoneally (ip).
# [4] = tested on: Leishmania major ATCC 50122 amastigotes; assay: In vitro amastigote/macrophage culture drug screening; type: cell-based; conditions: added once
# [5] = tested on: HeLa S3 cells; assay: Cytotoxicity assay in vitro (MTT); type: cell-based, human; conditions: 1 μg/mL
# Procedure: An axenic culture of human carcinoma HeLa S3 cell line was established in Dulbecco's Modified Eagle's Medium (D-MEM, Sigma) supplemented with 4500 mg glucose/L, L-glutamine, NaHCO3, and pyridoxine HCl, to which 10% heat-inactivated (56° C., 40 min) fetal bovine serum (FBS, MultiSer) was added. Plant chromatographic fractions, which have shown potent trypanocidal activity in vitro, were selected for cytotoxicity assay. Previously dissolved in neat DMSO (Wako-for biochemical assay), an aliquot of 10 μL of each test sample was diluted in 490 μL of the cell culture medium with the intent of decreasing the DMSO concentration to 2% in the medium. HeLa S3 cells maintained in culture dish (Sumilon) were washed with Dulbecco's phosphate saline buffer (-) [DPBS (-), Nissui Pharmaceutical Co., Ltd] after syphonating the culture medium. Adherent cells were released from their dish bottom substrate by adding trypsin (Nacalai) and gently tapping with hand on the round lateral side of the dish. […] After shaking ([…]) for 3-5 min, the absorbance in each well was measured at 540 nm in a microtiter plate reader (ImmunoMini NJ-2300). The percentage of cytotoxicity (growth inhibition level) was calculated as (A-B)/A×100, where A is the mean optical density of negative control wells and B is the mean optical density of test sample wells.
# [6] = tested on: Trypanosoma brucei brucei; assay: In vitro trypanocidal assay (microscopic viability, bloodstream forms); type: cell-based; conditions: 1 μg/mL, 24-hr incubation, read-out: growth inhibition against T. b. brucei
# Procedure: Culture suspension of Trypanosoma brucei brucei (T. b. brucei) was obtained from Research Institute for Microbial Diseases (Osaka University, Japan). Trypanosomes were subcultured in appropriate medium (see 5.1.2) as frequently as needed to avoid overgrowth, and maintained in culture flasks at 37° C. in a humidified, 5% CO2 atmosphere incubator. In addition, parasite culture stabilates were prepared by suspending trypanosomes centrifugation (1500 rpm, room temperature, 3 min) pellet in 1 mL of a mixture of […] (v/v) trypanosome dilution buffer and 33% (v/v) glycerol. The whole volume was transferred into cryotubes and stored at −80° C. until further needed. […]
# All fractions obtained stepwise in the course of the separation process of the plant crude extracts were assessed for their in vitro activity against T. b. brucei. […] Trypanosomes were harvested at late exponential growth level, counted with a hemocytometer (Erma Tokyo 7059), and resuspended by appropriate dilution in culture medium for achieving a final density of 1×10^4 cells/mL. […] After successively 24, 48, and 72 hr-incubations, parasites viability was determined by observing directly inside the wells of the microculture plate with an optical microscope (Injectoscope model IMT-YF/Olympus). […]
smiles,measurement,setting,value
"CCO[C@H]1O[C@@H]2O[C@@]3(C)CC[C@H]4[C@H](C)CC[C@@H]([C@H]1C)[C@@]24OO3 [Beta Arteether, Beta-Arteether]",effectiveness ranking of the compounds in the screen,[1],Artelinic acid>>>Dihydroartemisinin>Beta Arteether>>Artemisinin
N=C(N)c1ccc(OCCCCCOc2ccc(C(=N)N)cc2)cc1 [Pentamidine],oral bioavailability,[2],no oral bioavailability
Cc1ccc(C(=O)Nc2ccc(S(=O)(=O)O)c3cc(S(=O)(=O)O)cc(S(=O)(=O)O)c23)cc1NC(=O)c1cccc(NC(=O)Nc2cccc(C(=O)Nc3cc(C(=O)Nc4ccc(S(=O)(=O)O)c5cc(S(=O)(=O)O)cc(S(=O)(=O)O)c45)ccc3C)c2)c1 [Suramin],oral bioavailability,[2],no oral bioavailability
"C[C@H]1[C@@H](OCc2ccc(C(=O)O)cc2)O[C@@H]2O[C@@]3(C)CC[C@H]4[C@H](C)CC[C@@H]1[C@@]24OO3 [Artelinic acid, artelinic acid]",killing of / potency against Leishmania parasites within mouse macrophages in vitro,[1],marked potency
same,effectiveness ranking of the compounds in the screen,[1],Artelinic acid>>>Dihydroartemisinin>Beta Arteether>>Artemisinin
same,observation on Leishmania amastigotes,"[1]; 2.0 μM, added once",All the leishmania amastigotes were cleared
same,clearance of amastigotes in macrophages,"[1]; 2 uM, initial screen",cleared all of the amastigates in macrophages
same,lowest concentration at which killing of intracellular amastigotes was noted,"[1]; dose response, added once",0.1 µM
same,lowest dose at which clearance was complete,"[1]; dose response, added once",0.25 µM
same,Lesion Size (mm) Post-Rx,"[3]; 4 ul/Kg, IP",2.1 mm and 2.2 mm and 2.0 mm
same,Lesion Size (mm) Pre-Rx,"[3]; 4 ul/Kg, IP",2.6 mm and 2.5 mm
same,Lesion Size (mm) Pre-Rx,"[3]; 4 ul/Kg, Oral",2.7 mm and 2.8 mm
same,"effectiveness compared with Pentostam, the positive control",[3]; at the doses and route of administration tested,much more effective than Pentostam
same,effect on size of Leishmania major footpad lesions,[3]; given orally or ip for one week,decrease in the size of Leishmania major lesions
same,observation on Leishmania amastigotes,[4]; 0.25 μM,Cleared all the Leishmania amastigotes
same,observation on Leishmania amastigotes,[4]; 0.5 μM,Cleared all the parasites in the cytoplasm
same,observation on Leishmania amastigotes,[4]; 1.0 μM,All the amastigotes were cleared from the macrophages
Nc1nc(N)nc(Nc2ccc([As]3SCC(CO)S3)cc2)n1 (stereo not drawn) [Melarsoprol],oral bioavailability,[2]; po,no oral bioavailability
O.O.O.O.O.O.O.O.O.O=C([O-])[C@@H]1[O][Sb](=[O])([O][Sb]2(=[O])[O][C@H]([C@H](O)CO)[C@H](O)[C@H](C(=O)[O-])[O]2)[O][C@H]([C@H](O)CO)[C@@H]1O.[Na+].[Na+].[Na+] (stereo partly drawn) [Pentostam],Lesion Size (mm) Post-Rx,"[3]; 20 mg/Kg, IP",2.3 mm and 3.0 mm and 2.7 mm
same,Lesion Size (mm) Pre-Rx,"[3]; 20 mg/Kg, IP",2.8 mm and 2.6 mm
same,Lesion Size (mm) Post-Rx,"[3]; 20 mg/Kg, Oral",2.6 mm and 2.9 mm
same,Lesion Size (mm) Pre-Rx,"[3]; 20 mg/Kg, Oral",2.8 mm and 2.7 mm
"C[C@@H]1CC[C@H]2[C@@H](C)C(=O)O[C@@H]3O[C@@]4(C)CC[C@@H]1[C@]32OO4 [Artemisinin, (+)-artemisinin]",killing of / potency against Leishmania parasites within mouse macrophages in vitro,[1],results were duplicated
same,effectiveness ranking of the compounds in the screen,[1],Artelinic acid>>>Dihydroartemisinin>Beta Arteether>>Artemisinin
same,parasites per macrophage,"[1]; 2.0 μM, compound added q4 h × 1",between 4-7
same,cytotoxic level in vitro,[5],17.3%
same,inhibition at 1 µg/mL,[6],≥ 80%
